Assay results published in publication PMC6736568, “Discovery of Novel Anti-cryptosporidial Activities From Natural Products by in vitro High-Throughput Phenotypic Screening” (Frontiers in Microbiology, 2019).
Counter-ions that a name gives are not always drawn. Like-named read-outs stand apart in the source and are kept apart here.

What was measured:
in vitro = conditions: for cytotoxicity at 41 h, 10 µM: human
Cryptosporidium parvum = assay: qRT-PCR assay of the growth of C. parvum in vitro in HCT-8 host cells (primary and secondary screening, EC50); type: cell-based; conditions: for Inhibition (%): primary screening at 10 uM; for % Inhibition (3.3 uM): secondary screening at 3.3 uM
[1] = primary screening at 10 uM, treated vs control
[2] = primary screening at 10 uM, from Hs18S ΔCT

Molecule	Hs18S ΔCT (HCT-8 host cells (Hs18S); [1])	Cytotoxicity (%) (HCT-8 host cells (Hs18S); [2])	Inhibition (%) (Cryptosporidium parvum)	also measured
Cc1cc(O)c2c(c1O)C(=O)c1c(O)cc(C)c(O)c1C2=O [1,4,5,8-TETRAHYDROXY-2,6-DIMETHYLANTHROQUINONE]	–	–	–	Hs18S ΔCT (HCT-8 host cells (Hs18S); human, 41 h, 10 μM): 3.65; cytotoxicity at 41 h, 10 µM (in vitro): 92%
CC1CCC23CCC4(C)C5(C)CCC6C(C)(C)C(=O)CCC6(C)C5CCC4(OC2=O)C3C1C (stereo not shown) [3-OXOURSAN (28-13)OLIDE]	6.62	–	–	cytotoxicity at 10 µM (in vitro): 99%
CC(=O)O[C@@H]1C[C@@]2(C)[C@H](c3ccoc3)C[C@H]3O[C@]32[C@]2(C)C(=O)C(O)=C3C(C)(C)C(=O)C=C[C@]3(C)[C@@H]12 [ANTHOTHECOL]	–	–	–	Hs18S ΔCT (HCT-8 host cells (Hs18S); human, 41 h, 10 μM): 6.51; cytotoxicity at 41 h, 10 µM (in vitro): 98.9%
C[C@@]12C(=O)OC(=O)[C@]1(C)[C@H]1CC[C@@H]2O1 [CANTHARIDIN]	7.39	–	–	cytotoxicity at 10 µM (in vitro): 99.4%
CC1=C(O)C(=O)C=C2C1=CC=C1[C@@]2(C)CC[C@@]2(C)[C@@H]3C[C@](C)(C(=O)O)CC[C@]3(C)CC[C@]12C [CELASTROL]	3.82	–	–	cytotoxicity at 10 µM (in vitro): 92.9%
C[C@@H]1O[C@@H](O[C@H]2CC[C@]3(C=O)[C@H]4CC[C@]5(C)[C@@H](C6=CC(=O)OC6)CC[C@]5(O)[C@@H]4CC[C@]3(O)C2)[C@H](O)[C@H](O)[C@H]1O [CONVALLATOXIN]	10.84	–	–	cytotoxicity at 10 µM (in vitro): 99.9%
C[C@H]1O[C@@H](O[C@H]2[C@@H](O)C[C@H](O[C@H]3[C@@H](O)C[C@H](O[C@H]4CC[C@@]5(C)[C@H](CC[C@@H]6[C@@H]5CC[C@]5(C)[C@@H](C7=CC(=O)OC7)CC[C@]65O)C4)O[C@@H]3C)O[C@@H]2C)C[C@H](O)[C@@H]1O [DIGITOXIN]	13.47	–	–	cytotoxicity at 10 µM (in vitro): 100%
C[C@H]1O[C@@H](O[C@H]2[C@@H](O)C[C@H](O[C@H]3[C@@H](O)C[C@H](O[C@H]4CC[C@@]5(C)[C@H](CC[C@@H]6[C@@H]5C[C@@H](O)[C@]5(C)[C@@H](C7=CC(=O)OC7)CC[C@]65O)C4)O[C@@H]3C)O[C@@H]2C)C[C@H](O)[C@@H]1O [DIGOXIN]	14.32	–	–	cytotoxicity at 10 µM (in vitro): 100%
CC(C)=CCC[C@]1(C)C=Cc2c(O)c3c(c(CC=C(C)C)c2O1)O[C@]12C(=C[C@@H]4C[C@H]1C(C)(C)O[C@@]2(C/C=C(/C)C(=O)O)C4=O)C3=O [GAMBOGIC ACID]	–	–	–	Hs18S ΔCT (HCT-8 host cells (Hs18S); human, 41 h, 10 μM): 10.02; cytotoxicity at 41 h, 10 µM (in vitro): 99.9%
CC1=CC(=O)[C@H]2C(C)(C)CCC[C@]2(C)[C@@]1(O)CCc1ccoc1 [SOLIDAGENONE]	0.73	39.6%	-14.64%	–
CN[C@@H]1[C@H](O)[C@H](NC)[C@H]2O[C@@]3(O)C(=O)C[C@@H](C)O[C@H]3O[C@@H]2[C@H]1O.Cl [SPECTINOMYCIN HYDROCHLORIDE]	-0.51	-42.8%	-6.16%	–
CCNC(=O)CC[C@H](N)C(=O)[O-].[K+] [THEANINE POTASSIUM]	-0.45	-36.3%	-54.47%	–
C[C@@H](O)[C@H](N)C(=O)O [THREONINE (L)]	-0.26	-19.5%	-20.50%	–
COC(=O)C1(C)CCCC2(C)c3ccc(O)c(C(C)C)c3CCC12 (stereo not shown) [TOTAROL-19-CARBOXYLIC ACID, METHYL ESTER]	0.37	22.4%	-12.62%	–
COc1cc2c3cc1Oc1cc(ccc1O)C[C@@H]1c4c(cc(OC)c(O)c4Oc4ccc(cc4)C[C@@H]3N(C)CC2)CC[N+]1(C)C.Cl.O.O.O.O.O.[Cl-] [TUBOCURARINE CHLORIDE]	-0.29	-22.2%	37.53%	–
CC[C@H]1OC(=O)C[C@@H](O)[C@H](C)[C@@H](O[C@@H]2O[C@H](C)[C@@H](O[C@H]3C[C@@](C)(O)[C@@H](O)[C@H](C)O3)[C@H](N(C)C)[C@H]2O)[C@@H](CC=O)C[C@@H](C)C(=O)/C=C/C(C)=C/[C@@H]1CO[C@@H]1O[C@H](C)[C@@H](O)[C@@H](OC)[C@H]1OC [TYLOSIN TARTRATE]	-0.19	-14.2%	25.75%	–
O=c1ccn([C@@H]2O[C@H](COP(=O)([O-])OP(=O)([O-])OP(=O)([O-])O)[C@@H](O)[C@H]2O)c(=O)[nH]1.[Na+].[Na+].[Na+] [URIDINE TRIPHOSPHATE TRISODIUM]	0.23	14.5%	91.48%	% Inhibition (3.3 uM) (Cryptosporidium parvum): 17%
COC(=O)C1=CO[C@@H](O[C@@H]2O[C@H](CO)[C@@H](O)[C@H](O)[C@H]2O)[C@H]2[C@@H]1C(=O)C[C@@H]2C [VERBENALIN]	2.45	81.7%	-4.48%	–
O.O=C(O)[C@@H]1[C@H]2C[C@H]3c4[nH]c5ccccc5c4CCN3C[C@@H]2CC[C@@H]1O [YOHIMBIC ACID HYDRATE]	-0.27	-20.7%	-21.23%	–
C[C@H](CCC(=O)O)[C@H]1CC[C@H]2[C@@H]3C[C@H](O)[C@@H]4C[C@H](O)CC[C@]4(C)[C@H]3CC[C@]12C [alpha-HYDROXYDEOXYCHOLIC ACID]	-0.52	-43.0%	-6.93%	–
ABAMECTIN (avermectin B1a shown)	0.59	33.4%	97.65%	% Inhibition (3.3 uM) (Cryptosporidium parvum): -19%
AGELASINE (stereochemistry of diterpene unknown)	0.27	16.8%	43.55%	–
AVERMECTIN A1a	0.02	1.6%	97.32%	% Inhibition (3.3 uM) (Cryptosporidium parvum): -85%

Molecule	Hs18S ΔCT (HCT-8 host cells (Hs18S); [1])	Cytotoxicity (%) (HCT-8 host cells (Hs18S); [2])	Inhibition (%) (Cryptosporidium parvum)	also measured
AVOCADYNOFURAN	0.02	1.4%	-19.78%	–
AVOCATIN B	0.36	21.9%	4.87%	–
BACITRACIN	0.02	1.4%	-21.81%	–
BERBAMINE HYDROCHLORIDE	-0.21	-15.6%	6.86%	–
BICUCULLINE(-) METHIODIDE	-0.07	-4.9%	-0.49%	–
BLEOMYCIN (bleomycin B2 shown)	-0.22	-16.8%	52.96%	–
CASANTHRANOL [CASANTHRANOL [cascaroside A shown]]	–	–	50.17%	Cytotoxicity (%) (HCT-8 host cells (Hs18S); 10 µM): 15.4%
COLISTIN SULFATE	0.01	0.4%	33.43%	–
CYANOCOBALAMIN	-0.32	-24.5%	16.98%	–
DEGUELIN(-)	0.60	34.2%	45.04%	–
GARLICIN	–	–	4.93%	Cytotoxicity (%) (HCT-8 host cells (Hs18S); 10 µM): -30.8%
IVERMECTIN	-0.05	-3.4%	78.97%	% Inhibition (3.3 uM) (Cryptosporidium parvum): 6%
KHAYANTHONE	-0.01	-0.3%	-5.94%	–
LYSINE (L) HYDROCHLORIDE	-0.15	-11.0%	-22.55%	–
OMEGA-3-ACID ESTERS (EPA shown)	–	–	4.36%	Cytotoxicity (%) (HCT-8 host cells (Hs18S); 10 µM): -17.4%
PHYTOL	-0.42	-33.6%	-12.94%	–
POLYMYXIN B SULFATE	-0.20	-15.1%	-11.86%	–
POMIFERIN TRIMETHYL ETHER	0.17	11.4%	-34.33%	–
SPIRAMYCIN	–	–	-12.26%	Cytotoxicity (%) (HCT-8 host cells (Hs18S); 10 µM): -12.2%
STROPH[…] LACTONE ACETATE	2.37	80.7%	96.28%	% Inhibition (3.3 uM) (Cryptosporidium parvum): 19%
TANNIC ACID	0.27	17.0%	-22.61%	–
VERATRINE SULFATE	–	–	25.98%	Hs18S ΔCT (HCT-8 host cells (Hs18S)): -0.06; Cytotoxicity (%) (HCT-8 host cells (Hs18S); 10 µM): -4.3
